# According to PMC12715762, “Discovery of VU6052254: A Novel, Potent M1 Positive Allosteric Modulator” (ACS Chemical Neuroscience, 2025):
# Columns and labels:
# [1] = molecular target: 3A5 (Homo sapiens, UniProt P20815); experiment: CYP450 phenotyping, recombinant enzymes; assay type: in vitro ADME; conditions: 3A5, panel of eight recombinant enzymes
# [2] = molecular target: Potassium Channel [KATP] (Cricetus cricetus, UniProt Q09427); experiment: Eurofins radioligand binding; conditions: Hamster
# [3] = IV/PO pharmacokinetics (NHP); assay type: in vivo; conditions: NHP (cyno)
# [4] = test system: Calcium Channel L-Type, Benzothiazepine; experiment: Eurofins radioligand binding; conditions: Rat
# [5] = test system: Sodium Channel, Site 2; experiment: Eurofins radioligand binding; conditions: Site 2, Rat
# [6] = test system: GABAA, Muscimol, Central; experiment: Eurofins radioligand binding; conditions: Rat
# [7] = molecular target: Cannabinoid CB1 (Homo sapiens, UniProt P21554); experiment: Eurofins radioligand binding
# [8] = molecular target: Glucocorticoid (Homo sapiens, UniProt P04150); experiment: Eurofins radioligand binding
# [9] = molecular target: Androgen (Testosterone) (Homo sapiens, UniProt P10275); experiment: Eurofins radioligand binding
# [10] = molecular target: Tachykinin NK1 (Homo sapiens, UniProt P25103); experiment: Eurofins radioligand binding
# [11] = molecular target: Adenosine A3 (Homo sapiens, UniProt P0DMS8); experiment: Eurofins radioligand binding
# [12] = molecular target: CYP 2D6 (Homo sapiens, UniProt P10635); experiment: CYP450 inhibition; assay type: in vitro ADME
# [13] = test system: Glutamate, NMDA, Phencyclidine; experiment: Eurofins radioligand binding; conditions: Rat
# [14] = molecular target: Nicotinic Acetylcholine α1, Bungarotoxin (Homo sapiens, UniProt P02708+P07510+Q07001); experiment: Eurofins radioligand binding; conditions: read-out: % Inhibition at 10 µM
# [15] = molecular target: Leukotriene, Cysteinyl CysLT1 (Homo sapiens, UniProt Q9Y271); experiment: Eurofins radioligand binding
# [16] = test system: Glutamate, NMDA, Glycine; experiment: Eurofins radioligand binding; conditions: Rat
# [17] = molecular target: hERG potassium channel (Homo sapiens, UniProt Q12809); experiment: Eurofins radioligand binding
# [18] = molecular target: Dopamine D3 (Homo sapiens, UniProt P35462); experiment: Eurofins radioligand binding
# [19] = molecular target: Endothelin ETB (Homo sapiens, UniProt P24530); experiment: Eurofins radioligand binding
# [20] = molecular target: Histamine H3 (Homo sapiens, UniProt Q9Y5N1); experiment: Eurofins radioligand binding
# [21] = molecular target: Transporter, Norepinephrine (NET) (Homo sapiens, UniProt P23975); experiment: Eurofins radioligand binding
# [22] = IV/PO pharmacokinetics (dog); assay type: in vivo; conditions: Dog (beagle)
# [23] = cynomolgus monkey, plasma, 3 mg/kg po
# Androgen (Testosterone), sequence (P10275 whole entry): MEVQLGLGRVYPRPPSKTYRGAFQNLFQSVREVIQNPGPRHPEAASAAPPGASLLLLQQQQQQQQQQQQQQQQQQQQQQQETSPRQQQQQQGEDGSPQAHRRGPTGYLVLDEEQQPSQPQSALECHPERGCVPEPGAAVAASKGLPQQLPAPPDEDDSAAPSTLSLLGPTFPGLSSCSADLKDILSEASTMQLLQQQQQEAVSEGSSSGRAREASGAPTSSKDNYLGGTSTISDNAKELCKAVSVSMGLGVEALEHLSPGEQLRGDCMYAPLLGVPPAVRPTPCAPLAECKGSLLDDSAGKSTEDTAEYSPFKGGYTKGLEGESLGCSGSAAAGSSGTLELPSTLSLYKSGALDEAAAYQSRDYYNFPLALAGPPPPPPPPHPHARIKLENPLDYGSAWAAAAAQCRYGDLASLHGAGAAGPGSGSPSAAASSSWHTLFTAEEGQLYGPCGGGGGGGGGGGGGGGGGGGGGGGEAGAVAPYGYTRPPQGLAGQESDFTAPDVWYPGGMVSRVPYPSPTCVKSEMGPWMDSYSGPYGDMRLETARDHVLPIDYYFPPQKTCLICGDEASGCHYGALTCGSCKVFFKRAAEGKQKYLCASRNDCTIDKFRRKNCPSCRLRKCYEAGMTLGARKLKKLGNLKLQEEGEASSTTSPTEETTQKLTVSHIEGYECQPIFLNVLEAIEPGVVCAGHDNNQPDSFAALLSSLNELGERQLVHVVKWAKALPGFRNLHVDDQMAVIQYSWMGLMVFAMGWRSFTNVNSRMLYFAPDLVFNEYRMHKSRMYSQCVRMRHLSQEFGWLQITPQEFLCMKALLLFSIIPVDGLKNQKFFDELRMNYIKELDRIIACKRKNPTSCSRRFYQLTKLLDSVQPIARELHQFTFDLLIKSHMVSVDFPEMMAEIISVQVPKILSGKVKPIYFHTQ
# 3A5, sequence (P20815 whole entry): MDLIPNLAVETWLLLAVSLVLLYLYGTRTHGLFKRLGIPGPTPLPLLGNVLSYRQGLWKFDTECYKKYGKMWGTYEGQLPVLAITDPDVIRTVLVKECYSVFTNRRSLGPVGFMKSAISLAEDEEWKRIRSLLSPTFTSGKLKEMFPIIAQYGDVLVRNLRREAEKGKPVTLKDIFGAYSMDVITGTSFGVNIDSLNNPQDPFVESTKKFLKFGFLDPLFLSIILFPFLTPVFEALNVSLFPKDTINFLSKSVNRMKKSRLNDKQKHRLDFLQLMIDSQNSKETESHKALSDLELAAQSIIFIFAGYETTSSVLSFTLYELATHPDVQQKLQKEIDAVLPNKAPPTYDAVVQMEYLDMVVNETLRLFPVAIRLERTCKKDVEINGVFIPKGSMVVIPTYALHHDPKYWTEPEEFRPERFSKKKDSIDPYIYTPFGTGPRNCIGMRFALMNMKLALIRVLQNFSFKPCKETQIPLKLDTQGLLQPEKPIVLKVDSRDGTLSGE
# Potassium Channel [KATP], sequence (Q09427 whole entry): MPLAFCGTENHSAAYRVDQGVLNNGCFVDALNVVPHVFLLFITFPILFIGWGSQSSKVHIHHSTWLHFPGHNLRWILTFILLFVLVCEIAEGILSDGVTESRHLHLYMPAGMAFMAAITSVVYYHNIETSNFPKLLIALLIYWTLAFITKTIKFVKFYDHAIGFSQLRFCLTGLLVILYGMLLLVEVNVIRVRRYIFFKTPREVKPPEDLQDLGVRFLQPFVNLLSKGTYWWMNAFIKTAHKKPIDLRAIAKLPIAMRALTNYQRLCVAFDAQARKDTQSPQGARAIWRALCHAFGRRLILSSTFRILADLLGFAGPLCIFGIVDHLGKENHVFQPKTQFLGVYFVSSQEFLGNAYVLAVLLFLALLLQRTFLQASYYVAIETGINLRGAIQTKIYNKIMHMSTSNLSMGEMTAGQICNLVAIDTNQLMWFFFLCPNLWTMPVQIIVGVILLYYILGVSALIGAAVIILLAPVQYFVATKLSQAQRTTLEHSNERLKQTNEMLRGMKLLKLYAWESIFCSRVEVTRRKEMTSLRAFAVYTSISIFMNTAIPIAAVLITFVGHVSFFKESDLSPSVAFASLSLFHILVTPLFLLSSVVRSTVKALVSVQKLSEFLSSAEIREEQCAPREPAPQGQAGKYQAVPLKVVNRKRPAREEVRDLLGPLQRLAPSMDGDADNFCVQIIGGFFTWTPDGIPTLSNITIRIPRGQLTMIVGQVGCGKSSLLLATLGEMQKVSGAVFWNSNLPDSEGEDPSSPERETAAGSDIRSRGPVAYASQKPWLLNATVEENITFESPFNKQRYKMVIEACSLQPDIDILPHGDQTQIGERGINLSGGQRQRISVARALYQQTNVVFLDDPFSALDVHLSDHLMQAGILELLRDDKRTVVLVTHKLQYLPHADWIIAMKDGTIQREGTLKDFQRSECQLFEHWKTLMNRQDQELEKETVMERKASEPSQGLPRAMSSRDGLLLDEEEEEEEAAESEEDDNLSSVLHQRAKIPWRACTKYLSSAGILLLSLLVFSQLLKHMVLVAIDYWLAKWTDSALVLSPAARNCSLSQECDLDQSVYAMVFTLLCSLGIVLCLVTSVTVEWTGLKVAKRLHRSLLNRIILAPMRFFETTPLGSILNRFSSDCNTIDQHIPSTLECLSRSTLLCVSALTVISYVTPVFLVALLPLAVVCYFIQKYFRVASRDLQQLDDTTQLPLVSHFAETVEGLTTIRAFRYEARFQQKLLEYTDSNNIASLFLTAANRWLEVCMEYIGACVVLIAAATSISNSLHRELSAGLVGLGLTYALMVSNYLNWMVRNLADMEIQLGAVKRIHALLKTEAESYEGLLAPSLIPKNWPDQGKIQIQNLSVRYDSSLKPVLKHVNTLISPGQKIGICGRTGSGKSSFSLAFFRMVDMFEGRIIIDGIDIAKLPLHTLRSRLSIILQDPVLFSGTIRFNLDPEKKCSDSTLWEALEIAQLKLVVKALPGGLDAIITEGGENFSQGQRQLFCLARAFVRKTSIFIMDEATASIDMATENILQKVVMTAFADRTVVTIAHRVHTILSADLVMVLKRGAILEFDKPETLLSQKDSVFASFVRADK
# hERG potassium channel, sequence (Q12809 whole entry): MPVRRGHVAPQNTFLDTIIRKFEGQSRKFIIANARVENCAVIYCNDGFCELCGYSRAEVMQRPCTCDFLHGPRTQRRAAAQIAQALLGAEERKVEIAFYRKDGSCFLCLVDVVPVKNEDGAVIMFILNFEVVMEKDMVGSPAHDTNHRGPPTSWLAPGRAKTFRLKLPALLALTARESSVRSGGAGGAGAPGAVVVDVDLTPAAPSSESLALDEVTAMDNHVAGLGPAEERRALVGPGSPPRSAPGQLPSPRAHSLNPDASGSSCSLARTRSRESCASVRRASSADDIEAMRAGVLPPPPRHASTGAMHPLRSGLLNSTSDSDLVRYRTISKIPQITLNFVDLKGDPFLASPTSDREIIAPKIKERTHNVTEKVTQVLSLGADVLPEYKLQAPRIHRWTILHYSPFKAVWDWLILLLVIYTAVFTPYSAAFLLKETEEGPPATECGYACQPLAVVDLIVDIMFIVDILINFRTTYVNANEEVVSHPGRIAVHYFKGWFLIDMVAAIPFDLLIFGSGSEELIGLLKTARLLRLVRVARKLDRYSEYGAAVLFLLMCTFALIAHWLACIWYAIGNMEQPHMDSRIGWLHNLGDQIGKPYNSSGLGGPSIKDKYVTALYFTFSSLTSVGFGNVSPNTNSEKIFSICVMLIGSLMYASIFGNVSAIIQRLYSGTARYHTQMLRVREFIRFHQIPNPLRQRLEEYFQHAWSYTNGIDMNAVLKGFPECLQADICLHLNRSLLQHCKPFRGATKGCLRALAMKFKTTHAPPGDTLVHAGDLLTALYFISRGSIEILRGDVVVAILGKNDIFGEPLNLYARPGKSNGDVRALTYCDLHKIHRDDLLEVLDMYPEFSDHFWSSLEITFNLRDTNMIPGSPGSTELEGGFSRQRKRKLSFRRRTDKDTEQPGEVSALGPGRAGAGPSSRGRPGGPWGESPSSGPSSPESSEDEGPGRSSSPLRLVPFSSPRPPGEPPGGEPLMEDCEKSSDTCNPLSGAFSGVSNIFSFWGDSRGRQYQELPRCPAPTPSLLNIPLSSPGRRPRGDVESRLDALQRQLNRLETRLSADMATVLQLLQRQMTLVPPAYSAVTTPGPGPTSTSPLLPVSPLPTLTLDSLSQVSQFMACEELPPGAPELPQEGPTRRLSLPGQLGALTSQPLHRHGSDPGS
# Transporter, Norepinephrine (NET), sequence (P23975 whole entry): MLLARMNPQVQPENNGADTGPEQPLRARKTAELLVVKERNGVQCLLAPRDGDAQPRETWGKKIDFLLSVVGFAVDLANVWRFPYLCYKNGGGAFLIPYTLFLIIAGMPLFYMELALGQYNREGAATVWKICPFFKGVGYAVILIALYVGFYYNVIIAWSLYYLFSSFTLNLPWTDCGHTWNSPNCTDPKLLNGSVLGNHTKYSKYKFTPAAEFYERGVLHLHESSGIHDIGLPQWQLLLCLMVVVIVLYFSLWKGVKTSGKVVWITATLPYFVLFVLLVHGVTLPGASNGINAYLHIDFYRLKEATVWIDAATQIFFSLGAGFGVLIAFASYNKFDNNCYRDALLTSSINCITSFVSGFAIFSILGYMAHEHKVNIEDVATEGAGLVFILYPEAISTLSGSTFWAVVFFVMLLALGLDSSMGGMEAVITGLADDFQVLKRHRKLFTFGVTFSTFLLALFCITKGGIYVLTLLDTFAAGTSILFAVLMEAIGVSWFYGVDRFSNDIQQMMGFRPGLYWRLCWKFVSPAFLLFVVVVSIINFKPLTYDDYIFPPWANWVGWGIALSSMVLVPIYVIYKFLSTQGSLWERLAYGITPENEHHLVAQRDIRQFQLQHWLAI
# Adenosine A3, sequence (P0DMS8 whole entry): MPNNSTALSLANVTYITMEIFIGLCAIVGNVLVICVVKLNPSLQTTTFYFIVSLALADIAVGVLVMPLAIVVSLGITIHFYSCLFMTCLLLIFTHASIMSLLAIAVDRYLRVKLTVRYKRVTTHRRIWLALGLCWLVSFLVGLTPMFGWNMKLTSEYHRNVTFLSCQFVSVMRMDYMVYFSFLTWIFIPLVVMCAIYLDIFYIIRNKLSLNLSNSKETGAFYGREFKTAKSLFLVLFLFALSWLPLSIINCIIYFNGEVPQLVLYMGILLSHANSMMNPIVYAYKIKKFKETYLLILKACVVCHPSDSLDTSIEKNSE
structure (smiles),measurement,setting,value
Cn1cc2c(-c3cc(F)c(CN4Cc5ncccc5C4=O)c(F)c3)ccc(C(C)(C)O)c2n1 [compound 7],"contribution to metabolism, CYP450 phenotyping",[1],3.2%
same,inhibition at 10 µM,[2],11%
same,F (%) po,[3]; 3 mg/kg po,76%
same,clearance,"[3]; cynomolgus monkey, plasma, 1 mg/kg iv, read-out: CLp",7.3 mL/min/kg
same,half-life,"[3]; cynomolgus monkey, plasma, 1 mg/kg iv, read-out: Elimination t1/2 (converted)",4.9 h
same,Vd,"[3]; cynomolgus monkey, plasma, 1 mg/kg iv, read-out: Vss",1.5 L/kg
same,AUC,[3]; [23],12.4 µM·h
same,Cmax,[3]; [23],1100 nM
same,Tmax,[3]; [23],4.7 h
same,% Inhibition at 10 µM,[4],80%
same,% Inhibition at 10 µM,[5],22%
same,% Inhibition at 10 µM,[6],-10%
same,inhibition at 10 µM,[7],25%
same,inhibition at 10 µM,[8],9%
same,inhibition at 10 µM,[9],-4%
same,inhibition at 10 µM,[10],4%
same,inhibition at 10 µM,[11],8%
same,IC50,[12],> 30 µM
same,% Inhibition at 10 µM,[13],-1%
same,inhibition at 10 µM,[14],2%
same,inhibition at 10 µM,[15],8%
same,% Inhibition at 10 µM,[16],-9%
same,inhibition at 10 µM,[17],2%
same,inhibition at 10 µM,[18],-10%
same,inhibition at 10 µM,[19],6%
same,inhibition at 10 µM,[20],-11%
same,inhibition at 10 µM,[21],1%
same,F (%) po,[22]; 3 mg/kg po,65%
same,clearance,"[22]; plasma, 1 mg/kg iv, read-out: CLp",8.4 mL/min/kg
same,half-life,"[22]; plasma, 1 mg/kg iv, read-out: Elimination t1/2 (converted)",4.1 h
same,Vd,"[22]; plasma, 1 mg/kg iv, read-out: Vss",2.3 L/kg
same,AUC,"[22]; plasma, 3 mg/kg po",9 µM·h
same,Cmax,"[22]; plasma, 3 mg/kg po",700 nM
same,Tmax,"[22]; plasma, 3 mg/kg po",1.33 h
